Where a name gives a salt, the structure may show the parent alone. Read-outs that look alike come from different tables or passages of the source.
Tests used:
[1] = tested on: nitric oxide (NO) production; assay: Nitric oxide assay (LPS-induced J774.2 macrophages, Griess method); format: cell-based, mouse
[2] = Cytotoxicity against BJ normal cell line; conditions: human, BJ normal human fibroblast cells
T-cell proliferation = assay: T-Lymphocyte proliferation assay (PHA-activated PBMCs, Alamar blue); format: cell-based; conditions: human PBMC T-cells activated with phytohemagglutinin-L, 48 h, in vitro; for IC50: T-cell, read-out: IC50 against T-cell proliferation
[3] = molecular target: T1, human placental aromatase enzyme (Homo sapiens, UniProt P11511); assay: Human placental aromatase inhibition assay; format: biochemical
T1 construct: from tissue; host or cells: human placenta
T1 sequence (P11511 1-503): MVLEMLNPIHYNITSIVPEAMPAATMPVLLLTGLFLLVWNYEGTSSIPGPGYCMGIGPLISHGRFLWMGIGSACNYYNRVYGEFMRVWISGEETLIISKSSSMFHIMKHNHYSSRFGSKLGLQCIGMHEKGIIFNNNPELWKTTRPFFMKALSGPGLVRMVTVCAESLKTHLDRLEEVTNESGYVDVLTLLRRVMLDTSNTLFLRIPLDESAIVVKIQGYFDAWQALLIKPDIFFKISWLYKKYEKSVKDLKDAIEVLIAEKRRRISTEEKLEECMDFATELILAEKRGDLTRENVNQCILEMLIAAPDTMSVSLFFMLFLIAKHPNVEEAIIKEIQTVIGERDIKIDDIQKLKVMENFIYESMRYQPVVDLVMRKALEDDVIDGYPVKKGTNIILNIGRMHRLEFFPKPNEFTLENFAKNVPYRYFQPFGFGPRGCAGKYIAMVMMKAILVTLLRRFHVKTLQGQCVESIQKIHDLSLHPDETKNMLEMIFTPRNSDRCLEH

TNF-α production = assay: Cytokine inhibition assay (TNF-α by ELISA in LPS-stimulated, PMA-differentiated THP-1 cells); format: cell-based, human; conditions: for IC50: Homo sapiens, read-out: IC50 against TNF-α production
[4] = J774.2 mouse macrophages, LPS-induced, in vitro, read-out: IC50 against nitric oxide (NO) production
[5] = THP-1 cells differentiated with PMA, LPS-stimulated, 4 h, in vitro
[6] = testosterone to 17β-estradiol conversion, in vitro, read-out: IC50 against human placental aromatase enzyme
[7] = Mus musculus, J774.2, read-out: IC50 against nitric oxide (NO) production

Structure (SMILES) | IC50 [1, 4] [µM] | IC50 (T-cell proliferation) [µM] | IC50 [3, 6] [µM] | IC50 against TNF-α production (TNF-α production; [5]) | other results
C[C@@H]1CC2=CC(=O)CC[C@@H]2[C@H]2CC[C@@]3(C)[C@@H](CC[C@]3(C)O)[C@@H]21 [Compound 1, Mibolerone] | 46 ± 2.4 | 6.55 ± 0.6 | – | – | IC50 [2]: 80 ± 2.1 µM; IC50 [3]: 0.372 ± 0.009 µM; IC50 (TNF-α production; [5]): 115.8 ± 0.7 µM
CC1=CC2=CC(=O)CC[C@@H]2[C@H]2CC[C@@]3(C)[C@@H](CC[C@]3(C)O)[C@H]12 [Compound 2, 17β-hydroxy-7α,17α-dimethylestr-4,6-diene-3-one] | 54.4 ± 0.3 | 3.83 ± 0.3 | 0.31 ± 0.028 | inactive | –
C[C@@H]1Cc2cc(O)ccc2[C@@H]2[C@@H]1[C@@H]1CC[C@](C)(O)[C@@]1(C)C[C@@H]2O [Compound 3, 11β,17β-dihydroxy-7α,17α-dimethyl-estra-1,3,5-triene-3-one] | – | 4.24 ± 0.2 | 0.317 ± 0.012 | inactive | IC50 [1, 7]: 49.1 ± 0.4 µM
C[C@@H]1C[C@H]2C[C@H](O)CC[C@]2(O)[C@H]2CC[C@@]3(C)[C@@H](CC[C@]3(C)O)[C@H]12 [Compound 4, 3α,10β,17β-trihydroxy-7α,17α-dimethyl-5α-estrane] | – | – | 0.072 ± 0.001 | – | IC50 [1, 7]: 58 ± 0.1 µM; IC50 against T-cell proliferation (T-cell proliferation): inactive; IC50 (TNF-α production; THP-1, 4 h): 28.5 ± 0.07 µM
C[C@@H]1C(=O)C2CC(=O)CC[C@@H]2[C@H]2CC[C@@]3(C)[C@@H](CC[C@]3(C)O)[C@@H]21 (stereo partly drawn) [Compound 5, 17β-hydroxy-7α,17α-dimethyl-5α-estrane-3,6-dione] | 52.7 ± 0.3 | – | – | inactive | IC50 against T-cell proliferation (T-cell proliferation): inactive; IC50 against human placental aromatase enzyme ([3]; testosterone to 17β-estradiol conversion, in vitro): inactive
CNC(=N)NCCC[C@H](N)C(=O)O [L-NMMA, NG-Monomethyl-L-arginine, monoacetate salt, reference compound] | 128.2 ± 0.8 | – | – | – | –
CC(=O)CCCCn1c(=O)c2c(ncn2C)n(C)c1=O [pentoxifylline, reference compound] | – | – | – | – | IC50 (TNF-α production; THP-1, 4 h): 341 ± 2.1 µM
C[C@]12C=CC(=O)C=C1CC[C@@H]1[C@@H]2[C@@H](O)C[C@@]2(C)[C@H]1CC[C@]2(O)C(=O)CO [prednisolone, reference compound] | – | 9.75 ± 0.03 | – | – | –
